The structures appear in SMILES notation.

The results in this text go back to US11000537B2, “Composition comprising novel ginsenoside” (AMOREPACIFIC CORPORATION, priority 2018, dated 2021).

One data set has as its target T1, pancreatic α-amylase (Sus scrofa, UniProt P00690).
T1 construct: purchased Sigma
T1 sequence (P00690 16-511): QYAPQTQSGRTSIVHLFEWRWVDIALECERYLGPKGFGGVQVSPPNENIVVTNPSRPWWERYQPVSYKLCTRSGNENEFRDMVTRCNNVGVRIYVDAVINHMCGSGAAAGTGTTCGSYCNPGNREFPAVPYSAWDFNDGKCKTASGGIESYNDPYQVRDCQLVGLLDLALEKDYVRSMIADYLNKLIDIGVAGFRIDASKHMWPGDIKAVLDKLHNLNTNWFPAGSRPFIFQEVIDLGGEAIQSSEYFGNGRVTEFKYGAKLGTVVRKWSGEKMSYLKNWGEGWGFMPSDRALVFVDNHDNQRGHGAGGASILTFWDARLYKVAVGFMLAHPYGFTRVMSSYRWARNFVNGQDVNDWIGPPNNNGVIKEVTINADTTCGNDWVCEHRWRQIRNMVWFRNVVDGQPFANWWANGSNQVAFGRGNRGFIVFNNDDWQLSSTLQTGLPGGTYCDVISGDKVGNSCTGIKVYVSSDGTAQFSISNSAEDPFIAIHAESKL
Put plainly: α-amylase enzyme activity inhibition. It counts as biochemical. The method, then:
(§1) As a polysaccharide degrading enzyme, pancreatic α-amylase and α-glucosidase were purchased from Sigma, and the enzyme activity of novel ginsenoside GS #10, which is an example of the present disclosure, isolated from Ginseng seed extract and ginsenosides GS #01-GS #06, which are comparative examples of the present disclosure, was measured. In order to measure α-amylase activity, enzyme solution was prepared by dissolving BSA 0.1 g, 0.01 g/L NaN3, α-amylase 0.2857 g in 50 mL of PBS (phosphate buffered saline), and 5 mM of p-nitrophenyl-α-D-maltopentoglycoside was dissolved in another PBS to make a substrate solution. 0.1 mL of the test substance was added to 0.5 mL of the enzyme solution, and then the initial absorbance was measured at 405 nm. After adding 0.5 mL of the substrate solution and reacting it for 5 minutes, the absorbance was measured again. The change in enzyme activity was measured by the difference in absorbance between the two reactions. The method for measuring α-glucosidase activity is the same as the method for measuring α-amylase activity, and differs only in α-glucosidase and substrate (p-nitrophenyl-α-D-glucopyranoside). As a positive control to observe the inhibition of enzyme activity, acarbose, which is an α-amylase inhibitor and α-glucosidase inhibitor derived from wheat seed sold by Sigma, was used.

The subject of a further data set is α-glucosidase. The experiment in a line: α-glucosidase enzyme activity inhibition. The format is biochemical. How it is done: as §1
The test system of the next data set is HepG2 cells. Put plainly: triglyceride accumulation in hepatocytes (Triglyceride Assay Kit). The format is cell-based. The text has this:
In addition, in order to investigate whether inhibition of the expression of fat synthesis-related genes by ginsenoside derived from Ginseng seed may be involved in actual fat synthesis and accumulation, HepG2 cells were used to treat seven ginsenosides (GS #01-GS #06, GS #10; […]) and the control group (fenofibrate, FF) in the same manner as above, and then the Triglyceride Assay Kit (Abcam) was used to measure the amount of triglyceride (TG) accumulated in hepatocytes.

The test system of another data set is pancreatic lipase. Put plainly: pancreatic lipase activity inhibition (Pancreatic Lipase Activity Assay Kit). It counts as cell-based. The method, then:
The hepatocyte cell line HepG2 purchased from the International Center for Biological Resources (ATCC) were placed in Dulbecco's Modified Eagle's Medium (Sigma) to which 10% fetal bovine serum (Hyclone) and 1% penicillin/streptomycin (Sigma) were added, and cultured in a 5% CO2 incubator. As a positive control for the cells, Xenical (Sigma), which are used as pancreatic lipase inhibitors and anti-obesity therapeutic agents, and seven types of ginsenosides (GS #01-GS #06, GS #10; 10 μM each) extracted from Ginseng seed were treated for 1 hour. In addition, Pancreatic Lipase Activity Assay Kit (Abcam) was used to observe the inhibition of each lipase activity.

A further data set has as its system CD36. The experiment in a line: CD36 adipocyte marker gene expression (qPCR). It counts as cell-based. How it is done:
The adipocyte cell 3T3-L1 purchased from the International Center for Biological Resources (ATCC) were placed in Dulbecco's Modified Eagle's Medium (Sigma) to which 10% fetal bovine serum (Hyclone) and 1% penicillin/streptomycin (Sigma) were added, and cultured in a 5% CO2 incubator. In order to differentiate preadipocytes into adipocytes, the cells were filled in a culture plate and cultured. After 48 hours, the cells were replaced with Dulbecco's modified eagle medium (DMEM) to which 10% of fetal bovine serum (Hyclone), 0.5 mM of 3-isobutyl-1-methylxanthine (Sigma), 1 μM of dexamethasone (Sigma), 5 μg/ml of insulin (Sigma), 1% of penicillin/streptomycin (Sigma) were added and further cultured for 48 hours. During 48 hours of culture, seven types of ginsenoside reagents (GS #01-GS #06, GS #10) extracted from Ginseng seeds were treated at 10 μM each to affect adipocyte differentiation. […]
After the differentiation of adipocytes in the same manner as above, the expressions of PPARγ (Peroxisome proliferator-activated receptor gamma), aP2 (Adipocyte protein 2) and CD36 were observed as adipocyte marker genes. […] Bio-Rad's CFX96 real-time quantitative PCR (qPCR) instrument was used to quantify the expression levels of each gene. […]
For orientation: Real-time PCR tracks product formation cycle by cycle.

The test system of data set [1] is human umbilical vein endothelial cells (HUVEC). Put plainly: nitric oxide (NO) production in vascular endothelial cells. It counts as cell-based. The text has this:
Since nitric oxide is made by […] nitric oxide synthase (eNOS), in this experiment, it was confirmed whether the novel ginsenoside GS #10 of the example of the present disclosure can promote the production of nitric oxide through eNOS activity control in vascular endothelial cells. Specifically, the human umbilical vein endothelial cells (HUVEC) were purchased from the International Center for Biological Resources (ATCC) and cultured, and then the amount of nitric oxide (NO) produced by treating the novel ginsenoside GS #10 at a concentration of 1 to 10 μg/ml was measured.

As for `CC1(C)C(=O)CC[C@@]2(C)C1[C@@H](O[C@H]1OC(CO)[C@H](O)C(O)C1O[C@H]1OC(CO)[C@H](O)C(O)C1O)C[C@]1(C)C2C[C@@H](O)C2C([C@]3(C)CC[C@H](C(C)(C)O)O3)CC[C@]21C` (stereo partly drawn) [GS #10, (20S,24R)-6-O-β-D-glucopyranosyl(1→2)-β-D-glucopyranoside-dammar-3-one-20,24-epoxy-6a,12b,25-triol], the “α-amylase activity inhibitory effect” value on pancreatic α-amylase (1, 10 μM, compared with ginsenosides Rg1, Rg3, Rb1, FIG. 14) is recorded as “much superior”; at pancreatic α-amylase (Test Example 1, FIG. 11, ginseng seed ginsenosides compared), “most excellent α-amylase activity inhibitory effect”. Moreover, the “α-glucosidase activity inhibitory effect” value in the data set with α-glucosidase (1, 10 μM, compared with ginsenosides Rg1, Rg3, Rb1, FIG. 15) was “much superior”; with α-glucosidase (Test Example 1, FIG. 12, ginseng seed ginsenosides compared), “high inhibitory effect on α-glucosidase activity”. Also, in the data set with HepG2 cells (10 μM, HepG2, FIG. 21), the “inhibitory effect of lipid (triglyceride) accumulation in hepatocytes” value is “most excellent inhibitory effect of lipid accumulation in hepatocytes”. In addition, the “inhibition of triglyceride accumulated in hepatocytes” value with HepG2 cells (1, 10 μM, compared with Rg1, Rg3, Rb1, FIG. 26) is listed as “far superior in lipid metabolism inhibitory effect”. Also, in the data set on pancreatic lipase (10 μM, 1 hour, FIG. 22), the “lipase activity inhibitory effect relative to that of the conventional ginsenoside” value is on record as at least 2 times. Moreover, in the data set on pancreatic lipase (10 μM, 1 hour, FIG. 22), the “pancreatic lipase activity inhibitory effect” value is recorded as “the best”. In addition, the “pancreatic lipase activity inhibition” value in the data set on pancreatic lipase (1, 10 μM, compared with Rg1, Rg3, Rb1, FIG. 27) was “far superior in lipid metabolism inhibitory effect”. The “adipocyte differentiation inhibition, CD36 gene expression” value with CD36 (1 μM and 10 μM, compared with Rg1, Rg3, Rb1, FIG. 41) is recorded as “far superior in adipocyte differentiation inhibition”; in the data set on CD36 (10 μM, FIG. 37) it was “more effective in inhibiting the adipocyte differentiation”. In addition, the “NO production efficacy relative to ginsenoside Re (GS #03)” value in data set [1] (10 μg/ml, HUVEC, FIG. 43) is at least 2 times. For the same compound, in data set [1] (10 μg/ml, HUVEC, compared with GS #01 to GS #06, FIG. 43), the NO production-increasing effect entry is “significantly greater NO production-increasing effect”. Also, the “increased production of nitric oxide (NO)” value in data set [1] (10 μg/ml, compared with Rg1, Rg3, Rb1, FIG. 46) was “far superior”. In addition, the “nitric oxide (NO) production” value in data set [1] (1 to 10 μg/ml, HUVEC, FIG. 42) is recorded as “increase NO production in a concentration-dependent manner”.
